# Counter-ions that a name gives are not always drawn. Like-named read-outs stand apart in the source and are kept apart here. Non-standard residues stand in square brackets, D forms with d. Residues, ends and D or L forms follow the SMILES beside them. dTrp(2-Me) = Cc1[nH]c2ccccc2c1C[C@@H](N)C(=O)O
# Tested on: BDNF-induced nuclear Arc expression in primary cortical neurons
# Experiment: Chemogenomic screen: high-content image-based assay of BDNF-induced nuclear Arc expression (96-well)
# Format: cell-based, mouse
# Protocol: To increase the throughput of our pharmacological screening for modulators of Arc, the above mentioned assay was adapted to cultures of mouse primary cortical neurons in 96-well plates.
# All 319 compounds were initially tested at a final concentration of 16.7 µM with three biological replicates.
# Screening of compounds in the chemogenomic library was carried out using DIV13 primary forebrain cortical neurons cultured on poly-L-lysine/laminin-coated 96-well plates (Ibidi USA, Madison, WI). Cells were seeded at a density of 30,000 cells per well and treated with the compound library and BDNF according to the experimental design presented in Fig. 3a. After experimental treatment, cells were processed for Arc and acetyl-H3K9 immunocytochemistry according to the protocol described above. Both antigens (Arc and acetyl-H3K9) were imaged using an IN Cell Analyzer 6000 imaging system and a ×40 objective. […] High-throughput quantification of nuclear Arc immunofluorescence signal was performed in a similar fashion than the low-throughput procedure described above but with the exception that acetyl-H3K9 was used as a nuclear mask to guide the automated quantification of nuclear Arc immunofluorescence signal.
# [1] = chemogenomic (SMART) screen, BDNF-induced nuclear Arc expression, primary cortical neurons, BDNF control 19.5
# [2] = nuclear Arc-positive cells relative to DMSO + BDNF control, negative values = decrease
# [3] = BDNF-induced nuclear Arc expression, primary cortical neurons, chemogenomic screen
SMILES,Percentage of cell with nuclear Arc immunostaining above 2σ threshold [1],Fold-change — Normalized to DMSO control (BDNF) [2],also measured
C=C[C@@]1(C)CC(=O)[C@]2(O)[C@@]3(C)[C@@H](O)CCC(C)(C)[C@@H]3[C@H](OC(=O)CCN(C)C)[C@H](OC(C)=O)[C@@]2(C)O1.Cl [Colforsin dapropate hydrochloride],21.7%,1.1 fold,
CN1C(=O)CC[C@H]1c1cccnc1 [Cotinine],30.8%,1.6 fold,
CN(C)CCC=C1c2ccccc2C=Cc2ccccc21 [Cyclobenzaprine],14.1%,,
NS(=O)(=O)c1cc2c(cc1Cl)NC(C1CC3C=CC1C3)NS2(=O)=O (stereo not drawn) [Cyclothiazide],,,Percentage of cell with nuclear Arc immunostaining above 2σ threshold [3]: 8.4%
Nc1ccn([C@@H]2O[C@H](CO)[C@@H](O)[C@H]2O)c(=O)n1 [Cytidine],34.8%,1.8 fold,
O=c1cccc2n1C[C@@H]1CNC[C@H]2C1 [Cytisine],,,Percentage of cell with nuclear Arc immunostaining above 2σ threshold: 15.7%
"Clc1ccc(C23CNCC2C3)cc1Cl (stereo not drawn) [DOV-216,303]",,,"Percentage of cell with nuclear Arc immunostaining above 2σ threshold: 6.5%; Fold-change — Normalized to DMSO control (BDNF) (nuclear Arc-positive cells relative to DMSO control (BDNF), negative = decrease): -3.0 fold"
O=c1c(-c2ccc(O)cc2)coc2cc(O)ccc12 [Daidzein],40.8%,2.1 fold,
CNCCCN1c2ccccc2CCc2ccccc21 [Desipramine],,,Percentage of cell with nuclear Arc immunostaining above 2σ threshold [3]: 11.3%
CN(C)CC(c1ccc(O)cc1)C1(O)CCCCC1 (stereo not drawn) [Desvenlafaxine],33.0%,1.7 fold,
COc1ccc2c(c1)[C@]13CCCC[C@@H]1[C@H](C2)N(C)CC3 [Dextromethorphan],19.7%,1.0 fold,
CN1C[C@H](C(=O)N[C@]2(C)O[C@@]3(O)[C@@H]4CCCN4C(=O)[C@H](Cc4ccccc4)N3C2=O)C[C@@H]2c3cccc4[nH]cc(c34)C[C@H]21.CN1C[C@H](C(=O)N[C@]2(C)O[C@@]3(O)[C@@H]4CCCN4C(=O)[C@H](Cc4ccccc4)N3C2=O)C[C@@H]2c3cccc4[nH]cc(c34)C[C@H]21.O=C(O)C(O)C(O)C(=O)O [Dihydroergotamine tartrate],22.0%,1.1 fold,
C[C@]12N[C@H](Cc3ccccc31)c1ccccc12 [Dizocilpine],,1.1 fold,Percentage of cell with nuclear Arc immunostaining above 2σ threshold: 21.2%
O=c1[nH]c2ccccc2n1CCCN1CCC(n2c(=O)[nH]c3cc(Cl)ccc32)CC1 [Domperidone],15.3%,,
CCN[C@H]1C[C@H](C)S(=O)(=O)c2sc(S(N)(=O)=O)cc21 [Dorzolamide],,,Percentage of cell with nuclear Arc immunostaining above 2σ threshold [3]: 7.1%
CN(C)CC/C=C1\c2ccccc2CSc2ccccc21 [Dosulepin],16.7%,,
CN(C)CCC=C1c2ccccc2COc2ccccc21 [Doxepin],,,Percentage of cell with nuclear Arc immunostaining above 2σ threshold [3]: 10.2%
Cn1c(=O)c2c(ncn2CC(O)CO)n(C)c1=O (stereo not drawn) [Dyphylline],17.0%,,
"Cc1[nH]c2ccc(Cl)cc2c1C1=CCNCC1 [EMD-386,088]",,1.2 fold,Percentage of cell with nuclear Arc immunostaining above 2σ threshold: 22.7%
CN1CCC[C@@H]1Cc1c[nH]c2ccc(CCS(=O)(=O)c3ccccc3)cc12 [Eletriptan],,,Percentage of cell with nuclear Arc immunostaining above 2σ threshold [3]: 3.7%
CCOC(=O)[C@H](CCc1ccccc1)N[C@@H](C)C(=O)N1CCC[C@H]1C(=O)O [Enalapril],22.4%,1.1 fold,
CCN(CC)C(=O)/C(C#N)=C/c1cc(O)c(O)c([N+](=O)[O-])c1 [Entacapone],27.9%,1.4 fold,
CN(C)CCC[C@@]1(c2ccc(F)cc2)OCc2cc(C#N)ccc21 [Escitalopram oxalate],26.3%,1.4 fold,
CCOc1ccc(Cc2nccc3cc(OCC)c(OCC)cc23)cc1OCC [Ethaverine],,,Percentage of cell with nuclear Arc immunostaining above 2σ threshold [3]: 1.3%
CCN(CC)C(C)CN1c2ccccc2Sc2ccccc21 (stereo not drawn) [Ethopropazine],27.2%,1.4 fold,
CCC1(C)CC(=O)NC1=O (stereo not drawn) [Ethosuximide],21.8%,1.1 fold,
CCOc1ccc2nc(S(N)(=O)=O)sc2c1 [Ethoxzolamide],,,Percentage of cell with nuclear Arc immunostaining above 2σ threshold [3]: 8.4%

SMILES,Percentage of cell with nuclear Arc immunostaining above 2σ threshold [1],Fold-change — Normalized to DMSO control (BDNF) [2],also measured
CCNC1=Nc2ccc(Cl)cc2C(C)(c2ccccc2)O1 (stereo not drawn) [Etifoxine],,,Percentage of cell with nuclear Arc immunostaining above 2σ threshold: 0.0%
CCOC(=O)c1cncn1[C@H](C)c1ccccc1 [Etomidate],,,Percentage of cell with nuclear Arc immunostaining above 2σ threshold: 13.0%
Cc1nc(C(=O)NCC(=O)O)c(O)c2ccc(Oc3ccccc3)cc12 [FG-4592],26.8%,1.4 fold,
CC(C)c1c(CN(C)C(C)Cc2ccccc2)n(C)n(-c2ccccc2)c1=O (stereo not drawn) [Famprofazone],,,Percentage of cell with nuclear Arc immunostaining above 2σ threshold: 18.1%
O=c1[nH]c2cc(C(F)(F)F)c(N3CCOCC3)cc2n(CP(=O)(O)O)c1=O [Fanapanel],,,Percentage of cell with nuclear Arc immunostaining above 2σ threshold [3]: 8.8%
NC(=O)OCC(COC(N)=O)c1ccccc1 [Felbamate],14.3%,,
O=C(COc1ccc(Cl)cc1)N1CCN(Cc2ccc3c(c2)OCO3)CC1 [Fipexide],41.7%,2.1 fold,
Cc1c(-c2ccccc2)oc2c(C(=O)OCCN3CCCCC3)cccc2c1=O [Flavoxate],,,Percentage of cell with nuclear Arc immunostaining above 2σ threshold [3]: 3.1%
CCOC(=O)c1ncn2c1CN(C)C(=O)c1cc(F)ccc1-2 [Flumazenil],32.1%,1.6 fold,
OCCN1CCN(CCCN2c3ccccc3Sc3ccc(C(F)(F)F)cc32)CC1 [Fluphenazine],,,Percentage of cell with nuclear Arc immunostaining above 2σ threshold [3]: 0.3%
COCCCC/C(=N\OCCN)c1ccc(C(F)(F)F)cc1 [Fluvoxamine],,,Percentage of cell with nuclear Arc immunostaining above 2σ threshold [3]: 8.5%
C=C[C@@]1(C)CC(=O)[C@]2(O)[C@@]3(C)[C@@H](O)CCC(C)(C)[C@@H]3[C@H](O)[C@H](OC(C)=O)[C@@]2(C)O1 [Forskolin],29.3%,1.5 fold,
CC1=NN=C(c2ccc(N)cc2)c2cc3c(cc2C1)OCO3 [GYKI-52466],12.0%,,
CNC(=O)N1N=C(c2ccc(N)cc2)c2cc3c(cc2CC1C)OCO3 (stereo not drawn) [GYKI-53655],35.7%,1.8 fold,
NCC1(CC(=O)O)CCCCC1 [Gabapentin],,,Percentage of cell with nuclear Arc immunostaining above 2σ threshold: 9.0%
Oc1noc2c1CCNC2 [Gaboxadol],,,Percentage of cell with nuclear Arc immunostaining above 2σ threshold: 13.6%
COc1ccc2c3c1O[C@H]1C[C@@H](O)C=C[C@@]31CCN(C)C2 [Galantamine],,,Percentage of cell with nuclear Arc immunostaining above 2σ threshold: 4.2%
CC(=O)[C@H]1CC[C@H]2[C@@H]3CC[C@H]4C[C@](C)(O)CC[C@]4(C)[C@H]3CC[C@]12C [Ganaxolone],,1.2 fold,Percentage of cell with nuclear Arc immunostaining above 2σ threshold: 22.6%
O=c1c(-c2ccc(O)cc2)coc2cc(O)cc(O)c12 [Genistein],31.7%,1.6 fold,
CNC(C)C1CCC(N)C(OC2C(N)CC(N)C(OC3OCC(C)(O)C(NC)C3O)C2O)O1 (stereo not drawn) [Gentamicin],,,Percentage of cell with nuclear Arc immunostaining above 2σ threshold [3]: 10.3%
C[C@@H]1C(=O)O[C@H]2C[C@@]34[C@H]5C[C@@H](C(C)(C)C)[C@]36[C@@H](OC(=O)[C@@H]6O)O[C@@]4(C(=O)O5)[C@]21O [Ginkgolide A],19.3%,,
N=C(N)NC(=O)Cc1c(Cl)cccc1Cl [Guanfacine hydrochloride],20.9%,1.1 fold,
COc1ccc2c3c([nH]c2c1)C(C)=NCC3 [Harmaline],,1.5 fold,Percentage of cell with nuclear Arc immunostaining above 2σ threshold: 28.8%
Cc1nccc2c1[nH]c1ccccc12 [Harmane],,2.0 fold,Percentage of cell with nuclear Arc immunostaining above 2σ threshold: 38.8%
Cc1[nH]c2ccccc2c1C[C@@H](NC(=O)[C@@H](N)Cc1cnc[nH]1)C(=O)N[C@@H](C)C(=O)N[C@@H](Cc1c[nH]c2ccccc12)C(=O)N[C@H](Cc1ccccc1)C(=O)N[C@@H](CCCCN)C(N)=O [Hexarelin] (H-H[dTrp(2-Me)]AW[dF]K-NH2),17.9%,-1.1 fold,
C/C=C1\[C@H]2C=C(C)C[C@]1(N)c1ccc(=O)[nH]c1C2 [Huperzine A],14.8%,,
Nc1c2c(nc3ccccc13)CCCC2O (stereo not drawn) [Hydroxytacrine],36.9%,1.9 fold,
